US20180099917A1, “REVERSIBLY REDUCIBLE MATERIALS AND USE THEREOF” (University of Kentucky Research Foundation, priority 2016, published 2018)
≈ marks a conversion by molar mass, not a printed value. Read-outs that look alike come from different tables or passages of the source.

Experiments:
[1] = Solubility in acetonitrile; format: physicochemical
Protocol: In some embodiments, modifying the Z group in formula I above adjusts the solubility of the resulting compound. For example, in one embodiment, compound number 1 has a solubility of 0.1 M in acetonitrile (electrolyte solution), while compound number 2 has a solubility of 0.3 M in acetonitrile.
(§1) Following the formation of reversibly reducible materials as discussed above, various compounds were tested for structure, solubility, and reduction potentials. The results are provided in Table 2 below, with solubility shown in acetonitrile at 23° C. and reduction potentials shown versus ferrocene.

[2] = Reduction potentials versus ferrocene (electrochemistry in acetonitrile); format: physicochemical; details: for First Reduction / Second Reduction: reduction potential versus ferrocene
Excerpt: The reversibly reducible material according to one or more of the embodiments disclosed herein is soluble in at least one solvent for redox flow batteries. Accordingly, also provided herein is a negolyte for use in redox-flow batteries, the negolyte including the reversibly reducible material and a redox flow battery solvent. Such solvents include, but are not limited to, acetonitrile, propylene glycol, propylene carbonate, dimethyl acetamide, and dimethyl formamide. […] In some embodiments, the negolyte also includes an electrolyte. Suitable electrolytes include, but are not limited to, tetraalkylammonium hexafluorophosphate, perchlorate, tetrafluoroborate, triflate, perfluorobutylsulfonate, lithium salts thereof (e.g., lithium hexafluorophosphate or perchlorate), other organic-soluble materials, any other suitable electrolyte, or a combination thereof. Other suitable electrolytes include, but are not limited to, sulfuric acid and/or potassium hydroxide. An example of the electrochemical trace, with internal ferrocene standard in acetonitrile using tetrabutylammonium hexafluorophosphate electrolyte, is shown in FIG. 1. Although discussed above with regard to non-aqueous redox flow batteries, as will be appreciated by those skilled in the art the instant disclosure is not so limited and may include aqueous redox flow batteries as well.
as §1

[3] = acetonitrile (electrolyte solution), organic solvent or mixture, read-out: solubility in acetonitrile
[4] = organic solvent or mixture, in acetonitrile at 23° C., read-out: Solubility

Row | solubility ([1]; in acetonitrile at 23° C.) | First Reduction [2] [V] | Second Reduction [2] [V] | solubility [1, 3] [mM] | solubility [1, 4] [mM] | solubility compared to compound 2 ([1]; Cl at the R5 position versus identical compound without Cl) | Structure (SMILES) | electrochemistry properties ([2]; second group on the N atom)
1 | Miscible | −1.295 | −1.784 | – | – | – | COCCOCCOCCNC1=CC(=O)c2ccccc2C1=O | –
2 | – | −1.266 | −1.841 | 100 (≈ 22.9 mg/mL) | 100 (≈ 22.9 mg/mL) | – | CC(C)CNC1=CC(=O)c2ccccc2C1=O [Compound 1] | –
3 | – | −1.316 | −1.798 | 300 (≈ 69.4 mg/mL) | 300 (≈ 69.4 mg/mL) | – | COCCNC1=CC(=O)c2ccccc2C1=O [Compound 2] | –

Further lines, the compound ahead of its results:

Row | Structure (SMILES) | solubility ([1]; in acetonitrile at 23° C.) | First Reduction [2] [V] | Second Reduction [2] [V] | solubility [1, 3] [mM] | solubility [1, 4] [mM] | solubility compared to compound 2 ([1]; Cl at the R5 position versus identical compound without Cl) | electrochemistry properties ([2]; second group on the N atom)
4 | COCCN(CCOC)C1=CC(=O)c2ccccc2C1=O | Miscible | −1.295 | -1.67 | – | – | – | –
5 | COCCNC1=C(Cl)C(=O)c2ccccc2C1=O [Compound 10] | – | – | – | – | – | increases the solubility | –
6 | CCN(CC)C1=CC(=O)c2ccccc2C1=O [Compound 11] | – | −1.362 | −1.686 | 700 (≈ 160 mg/mL) | 700 (≈ 160 mg/mL) | – | excellent electrochemistry properties
